Test results published in publication PMC6315490, “Angucycline Glycosides from an Intertidal Sediments Strain Streptomyces sp. and Their Cytotoxic Activity against Hepatoma Carcinoma Cells” (Marine Drugs, 2018).
“Also recorded” adds a separate entry of the source.

Tests used:
Assay type in all cases: cell-based
[1] = system: SMMC-7721 cells; experiment: DAPI staining test for apoptosis; settings: 0.025 to 0.100 μM for 24 h
Procedure: (§1) Though, the distinct in vivo toxicity restricted the further development of these compounds to be clinical drugs. Recently, an atypical angucycline, lomaiviticin A, was reported to be under preclinical evaluation for antitumor treatment due to its prominent cytotoxicity and effects of inducing double-strand breaks in DNA [14, 23]. In present work, 1–4 were assayed for their cytotoxic activity against normal liver cell LO2, hepatoma carcinoma HepG-2, SMMC-7721 and plc-prf-5 cell lines by 3-(4,5-dimethylthiazol-2-yl)-2,5-diphenyltetrazolium bromide (MTT) method (Table 2).
(§2) Figure 5 (a) Fluorescence micrographs of untreated and saquayamycin B-treated SMMC-7721 cells (24 h) stained with DAPI, Magnification: 100×; (b) Quantification of saquayamycin B-induced apoptosis in SMMC-7721 cell using flow cytometric analysis. ** p < 0.01 versus saquayamycin B 0 μM group. […]
(§3) The cytotoxicity evaluations of 1–4 against normal liver cell and hepatoma carcinoma cells were carried out using the 3-(4,5-dimethylthiazole-2-yl)-2,5-diphenyltetrazolium bromide (MTT) assay. […] DAPI staining test was employed to qualitatively observe apoptosis, and the apoptotic ratio was measured by flow cytometric analysis (Becton Dickinson FACScan, San Jose, CA, USA). […]

[2] = system: SMMC-7721 cells; experiment: Flow cytometric analysis of apoptosis; settings: Figure 5b
Procedure: as §1, §2, §3

[3] = system: hepatoma carcinoma plc-prf-5 cells; experiment: MTT cytotoxicity assay, plc-prf-5; settings: Homo sapiens, MTT method
Procedure: as §1
(§4) The cytotoxicity evaluations of 1–4 against normal liver cell and hepatoma carcinoma cells were carried out using the 3-(4,5-dimethylthiazole-2-yl)-2,5-diphenyltetrazolium bromide (MTT) assay. Doxorubicin was used as positive control drug and deionized H2O with the same DMSO concentration was used as parallel control. DAPI staining test was employed to qualitatively observe apoptosis, and the apoptotic ratio was measured by flow cytometric analysis (Becton Dickinson FACScan, San Jose, CA, USA). These tests were conducted using the methods as previously described.

[4] = system: hepatoma carcinoma HepG-2 cells; experiment: MTT cytotoxicity assay, HepG-2; settings: Homo sapiens, HepG2, MTT method
Procedure: as §1, §4

[5] = system: hepatoma carcinoma SMMC-7721 cells; experiment: MTT cytotoxicity assay, SMMC-7721; settings: Homo sapiens, MTT method
Procedure: as §1, §4

[6] = MTT cytotoxicity assay, normal liver cell LO2; settings: human; MTT method; LO2 normal liver cells
Procedure: as §1, §4

| SMILES | Apoptosis by morphological characteristics in DAPI staining [1] | Apoptotic ratio of SMMC-7721 cells (flow cytometry), concentration dependence [2] | IC50 [3] [µM] | IC50 [4] [µM] | IC50 [5] [µM] | IC50 [6] [µM] |
| --- | --- | --- | --- | --- | --- | --- |
| CC1OC(OC2CCC(OC3(C)CC(=O)C4(O)C5=C(C=CC4(O)C3)C(=O)c3c(ccc(C4CC6OC7CC(=O)C(C)OC7OC6C(C)O4)c3O)C5=O)OC2C)C=CC1=O (stereo not shown) [Compound 4, saquayamycin B] | chromatin dispersion and formation of apoptotic body; also recorded: induced apoptosis in SMMC-7721 cells | dependent on the concentrations of saquayamycin B | 0.244 ± 0.001 | 0.135 ± 0.056 | 0.033 ± 0.005 | 0.343 ± 0.081 |
| Cc1cc(O)c2cc3c(c(O)c2c1)C(=O)c1ccc(C2CC4OC5CC(=O)C(C)OC5OC4C(C)O2)c(O)c1C3=O (stereo not shown) [Compound 2, galtamycin C] |  |  | > 40 | > 40 | > 40 | > 40 |
| CC1OC(OC2CCC(OC(C)(CC(=O)O)Cc3ccc4c(c3O)C(=O)c3ccc(C5CC6OC7CC(=O)C(C)OC7OC6C(C)O5)c(O)c3C4=O)OC2C)C=CC1=O (stereo not shown) [Compound 3, vineomycin D] |  |  | > 40 | > 40 | > 40 | > 40 |
| COc1cccc2c1C(=O)c1c(O)c3c(c(O)c1C2=O)C[C@@](O)(C(=O)CO)C[C@@H]3O[C@H]1C[C@H](N)[C@H](O)[C@H](C)O1 [Doxorubicin, reference compound] |  |  | 1.03 ± 0.99 | 0.919 ± 0.599 | 0.706 ± 0.004 | 2.26 ± 0.16 |
| Cc1cc(O)c2c3c(cc(O)c2c1)C(=O)c1c(ccc(C2CC4OC5CC(=O)C(C)OC5OC4C(C)O2)c1O)C3=O (stereo not shown) [Compound 1, landomycin N] |  |  | > 40 | > 40 | > 40 | > 40 |
